Test results: US8697739B2, “Bicyclic acetyl-CoA carboxylase inhibitors and uses thereof” (Novartis AG, priority 2010, dated 2014)

Molecular target: T1, human acetyl-CoA carboxylase 2 (ACC2) (Homo sapiens, UniProt O00763)
T1 construct: The cDNA encoding amino acids 144 to 2458 of human acetyl-CoA carboxylase 2; made in house; host or cells: Sf9 insect cells (baculovirus, pFastBac1)
Experiment: Acetyl-CoA carboxylase enzyme assay (malonyl-CoA formation by LC/MS/MS)
Format: biochemical
Conditions: recombinant human ACC2 (aa 144-2458); read-out: IC50 ACC2
Summary of the method: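 Malonyl-CoA formation was read by LC/MS/MS MRM against a [13C3]-malonyl-CoA internal standard, after acetic acid quench. The enzyme was baculovirus/Sf9-expressed human ACC2 residues 144–2458, given 15 minutes room-temperature compound preincubation in HEPES pH 7.5 buffer with MgCl2, citrate and DTT. Substrate solution held 50 μM acetyl-CoA, 120 μM ATP and 2 mM KHCO3.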

T1 sequence (O00763 144-2458): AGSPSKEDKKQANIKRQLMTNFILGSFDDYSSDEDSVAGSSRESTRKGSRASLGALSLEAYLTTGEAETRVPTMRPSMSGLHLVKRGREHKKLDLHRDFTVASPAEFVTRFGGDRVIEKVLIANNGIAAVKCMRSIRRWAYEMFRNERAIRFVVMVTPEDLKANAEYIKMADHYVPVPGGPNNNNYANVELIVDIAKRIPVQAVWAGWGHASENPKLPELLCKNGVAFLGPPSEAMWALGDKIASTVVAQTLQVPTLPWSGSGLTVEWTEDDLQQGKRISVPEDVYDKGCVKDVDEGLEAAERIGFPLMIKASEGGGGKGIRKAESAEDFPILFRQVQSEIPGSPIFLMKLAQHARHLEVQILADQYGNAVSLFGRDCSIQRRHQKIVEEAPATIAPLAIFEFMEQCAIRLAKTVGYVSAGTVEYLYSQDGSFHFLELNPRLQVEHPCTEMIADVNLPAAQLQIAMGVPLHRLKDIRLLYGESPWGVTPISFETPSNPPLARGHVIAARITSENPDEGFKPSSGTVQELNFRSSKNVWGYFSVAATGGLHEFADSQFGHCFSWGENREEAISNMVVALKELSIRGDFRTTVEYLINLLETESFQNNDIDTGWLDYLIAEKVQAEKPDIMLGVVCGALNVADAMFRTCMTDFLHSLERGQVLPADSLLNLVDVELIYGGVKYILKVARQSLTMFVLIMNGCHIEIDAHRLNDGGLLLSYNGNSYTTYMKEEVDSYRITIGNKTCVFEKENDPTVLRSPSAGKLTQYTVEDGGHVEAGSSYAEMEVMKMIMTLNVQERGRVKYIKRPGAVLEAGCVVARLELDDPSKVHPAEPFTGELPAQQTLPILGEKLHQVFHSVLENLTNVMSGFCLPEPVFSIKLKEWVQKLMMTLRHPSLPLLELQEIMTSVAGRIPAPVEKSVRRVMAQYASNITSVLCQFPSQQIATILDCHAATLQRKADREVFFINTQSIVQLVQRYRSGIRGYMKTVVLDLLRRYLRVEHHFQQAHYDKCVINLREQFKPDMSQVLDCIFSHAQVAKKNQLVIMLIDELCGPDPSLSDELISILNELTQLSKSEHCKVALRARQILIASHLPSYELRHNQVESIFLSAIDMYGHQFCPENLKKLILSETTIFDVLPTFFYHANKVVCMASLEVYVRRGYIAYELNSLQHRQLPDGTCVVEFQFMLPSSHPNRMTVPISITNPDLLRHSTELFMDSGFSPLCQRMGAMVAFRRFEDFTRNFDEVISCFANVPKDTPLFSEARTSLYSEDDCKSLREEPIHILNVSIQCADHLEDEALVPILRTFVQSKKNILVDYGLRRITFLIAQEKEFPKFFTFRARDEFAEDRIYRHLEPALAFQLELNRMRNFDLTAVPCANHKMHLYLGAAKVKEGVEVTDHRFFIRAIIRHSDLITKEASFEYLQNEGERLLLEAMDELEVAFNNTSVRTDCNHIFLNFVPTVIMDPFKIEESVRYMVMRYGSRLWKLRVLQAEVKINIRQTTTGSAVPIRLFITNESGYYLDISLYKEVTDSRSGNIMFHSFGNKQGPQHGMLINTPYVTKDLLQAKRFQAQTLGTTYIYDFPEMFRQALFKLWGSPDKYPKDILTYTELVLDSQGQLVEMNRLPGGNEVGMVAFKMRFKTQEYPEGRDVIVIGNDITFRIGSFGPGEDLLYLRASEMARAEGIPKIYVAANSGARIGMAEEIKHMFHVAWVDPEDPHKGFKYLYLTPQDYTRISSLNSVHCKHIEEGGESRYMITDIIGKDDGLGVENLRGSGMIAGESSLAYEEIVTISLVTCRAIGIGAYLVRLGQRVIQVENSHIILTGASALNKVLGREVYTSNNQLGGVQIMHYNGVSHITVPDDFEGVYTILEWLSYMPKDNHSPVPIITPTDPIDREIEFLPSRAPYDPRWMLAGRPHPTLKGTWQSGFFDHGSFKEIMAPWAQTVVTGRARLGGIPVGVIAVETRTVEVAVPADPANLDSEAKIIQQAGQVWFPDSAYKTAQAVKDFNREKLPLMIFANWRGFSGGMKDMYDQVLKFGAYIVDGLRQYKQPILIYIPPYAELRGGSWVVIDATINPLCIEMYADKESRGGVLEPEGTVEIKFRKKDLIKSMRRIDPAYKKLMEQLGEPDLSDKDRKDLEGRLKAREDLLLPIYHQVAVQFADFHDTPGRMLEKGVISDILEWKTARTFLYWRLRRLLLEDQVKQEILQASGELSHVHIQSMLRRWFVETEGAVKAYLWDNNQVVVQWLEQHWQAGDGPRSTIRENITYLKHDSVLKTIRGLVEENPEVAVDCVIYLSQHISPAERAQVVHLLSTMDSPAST

Row | Structure (SMILES) | IC50 [nM]
1 | CC(C)N1CCN(C(C)C)c2ncc(S(=O)(=O)N[C@H]3CC[C@H](C(=O)N[C@H](C)c4ccc(F)cc4)CC3)cc21 [Example 143, (1r,4R)-4-(1,4-diisopropyl-1,2,3,4-tetrahydropyrido[3,2-b]pyrazine-7-sulfonamido)-N-((R)-1-(4-fluorophenyl)ethyl)cyclohexanecarboxamide] | 325
2 | C[C@H]1CCCN1C(=O)[C@H]1CC[C@H](NS(=O)(=O)c2ccc3ccccc3c2)CC1 [Example 146, N-((1S,4r)-4-((S)-2-methylpyrrolidine-1-carbonyl)cyclohexyl)naphthalene-2-sulfonamide] | 952
3 | C[C@@H](NC(=O)[C@H]1CC[C@@H](NS(=O)(=O)c2ccc3ccccc3c2)CC1)c1ccc(F)cc1 [Example 147, (1s,4S)-N-((R)-1-(4-fluorophenyl)ethyl)-4-(naphthalene-2-sulfonamido)cyclohexanecarboxamide] | > 35000
4 | C[C@@H](NC(=O)[C@H]1CC[C@H](NS(=O)(=O)c2ccc3c(c2)N(C)CCC3)CC1)c1ccc(F)cc1 [Example 148, (1r,4R)-N-((R)-1-(4-fluorophenyl)ethyl)-4-(1-methyl-1,2,3,4-tetrahydroquinoline-7-sulfonamido)cyclohexanecarboxamide] | 10
5 | [2H]C([2H])([2H])N1C(=O)COc2ccc(S(=O)(=O)N[C@H]3CC[C@H](C(=O)N[C@H](C)c4ccc(F)cc4)CC3)cc21 [Example 155, (1r,4R)-N-((R)-1-(4-fluorophenyl)ethyl)-4-(3-oxo-4-(trideuteriomethyl)-3,4-dihydro-2H-benzo[b][1,4]oxazine-6-sulfonamido)cyclohexanecarboxamide] | 175
6 | C[C@@H](NC(=O)[C@H]1CC[C@H](NS(=O)(=O)c2ccc3c(c2)N(C)C(=O)CO3)CC1)c1ccc(F)cc1 [Example 156, (1r,4R)-N-((R)-1-(4-fluorophenyl)ethyl)-4-(4-methyl-3-oxo-3,4-dihydro-2H-benzo[b][1,4]oxazine-6-sulfonamido)cyclohexanecarboxamide] | 183
7 | C[C@@H](NC(=O)[C@H]1CC[C@H](NS(=O)(=O)c2ccc3c(c2)N(C)CCO3)CC1)c1ccc(F)cc1 [Example 157, (1r,4R)-N-((R)-1-(4-fluorophenyl)ethyl)-4-(4-methyl-3,4-dihydro-2H-benzo[b][1,4]oxazine-6-sulfonamido)cyclohexanecarboxamide] | 38
8 | [2H]C([2H])([2H])N1CCOc2ccc(S(=O)(=O)N[C@H]3CC[C@H](C(=O)N[C@H](C)c4ccc(F)cc4)CC3)cc21 [Example 158, (1r,4R)-N-((R)-1-(4-fluorophenyl)ethyl)-4-(4-(trideuteriomethyl)-3,4-dihydro-2H-benzo[b][1,4]oxazine-6-sulfonamido)cyclohexanecarboxamide] | 20
9 | CC(NC(=O)[C@H]1CC[C@H](NS(=O)(=O)c2ccc3c(c2)N(C)CCC3)CC1)c1ccccn1 (stereo partly shown) [Example 159, (1r,4r)-4-(1-methyl-1,2,3,4-tetrahydroquinoline-7-sulfonamido)-N-(1-(pyridin-2-yl)ethyl)cyclohexanecarboxamide] | 345
10 | CC(NC(=O)[C@H]1CC[C@H](NS(=O)(=O)c2ccc3c(c2)N(C)CCC3)CC1)c1cccnc1 (stereo partly shown) [Example 160, (1r,4r)-4-(1-methyl-1,2,3,4-tetrahydroquinoline-7-sulfonamido)-N-(1-(pyridin-3-yl)ethyl)cyclohexanecarboxamide] | 80
11 | CC(NC(=O)[C@H]1CC[C@H](NS(=O)(=O)c2ccc3c(c2)N(C)CCC3)CC1)c1ccncc1 (stereo partly shown) [Example 161, (1r,4r)-4-(1-methyl-1,2,3,4-tetrahydroquinoline-7-sulfonamido)-N-(1-(pyridin-4-yl)ethyl)cyclohexanecarboxamide] | 340

More lines, now with the values ahead:

Row | IC50 [nM] | Structure (SMILES)
12 | 986 | Cc1ccnc2ncc(S(=O)(=O)N[C@H]3CC[C@H](C(=O)N[C@H](C)c4ccc(F)cc4)CC3)cc12 [Example 140, (1r,4R)-N-((R)-1-(4-fluorophenyl)ethyl)-4-(5-methyl-1,8-naphthyridine-3-sulfonamido)cyclohexanecarboxamide]
13 | 579 | CC(C)N1CCNc2ncc(S(=O)(=O)N[C@H]3CC[C@H](C(=O)N[C@H](C)c4ccc(F)cc4)CC3)cc21 [Example 141, (1r,4R)-N-((R)-1-(4-fluorophenyl)ethyl)-4-(1-isopropyl-1,2,3,4-tetrahydropyrido[3,2-b]pyrazine-7-sulfonamido)cyclohexanecarboxamide]
14 | 68 | C[C@@H](NC(=O)[C@H]1CC[C@H](NS(=O)(=O)c2cnc3c(c2)NCCN3C)CC1)c1ccc(F)cc1 [Example 142, (1r,4R)-N-((R)-1-(4-fluorophenyl)ethyl)-4-(4-methyl-1,2,3,4-tetrahydropyrido[3,2-b]pyrazine-7-sulfonamido)cyclohexanecarboxamide]
15 | 314 | C[C@@H](NC(=O)[C@H]1CC[C@H](NS(=O)(=O)c2ccc3c(c2)CCC(C)(C)O3)CC1)c1ccc(F)cc1 [Example 144, (1r,4R)-4-(2,2-dimethylchroman-6-sulfonamido)-N-((R)-1-(4-fluorophenyl)ethyl)cyclohexanecarboxamide]
16 | 128 | C[C@@H](NC(=O)[C@H]1CC[C@H](NS(=O)(=O)c2cnc3c(c2)CCCN3C)CC1)c1ccc(F)cc1 [Example 145, (1r,4R)-N-((R)-1-(4-fluorophenyl)ethyl)-4-(8-methyl-5,6,7,8-tetrahydro-1,8-naphthyridine-3-sulfonamido)cyclohexanecarboxamide]
17 | 290 | C[C@@H](NC(=O)[C@H]1CC[C@H](NS(=O)(=O)c2ccc3c(c2)NCCN3)CC1)c1ccc(F)cc1 [Example 149, (1r,4R)-N-((R)-1-(4-fluorophenyl)ethyl)-4-(1,2,3,4-tetrahydroquinoxaline-6-sulfonamido)cyclohexanecarboxamide]
18 | 105 | C[C@@H](NC(=O)[C@H]1CC[C@H](NS(=O)(=O)c2ccc3c(c2)NCCO3)CC1)c1ccc(F)cc1 [Example 150, (1r,4R)-4-(3,4-dihydro-2H-benzo[b][1,4]oxazine-6-sulfonamido)-N-((R)-1-(4-fluorophenyl)ethyl)cyclohexanecarboxamide]
19 | 47 | C[C@@H](NC(=O)[C@H]1CC[C@H](NS(=O)(=O)c2ccc3c(c2)NCCC3)CC1)c1ccc(F)cc1 [Example 151, (1r,4R)-N-((R)-1-(4-fluorophenyl)ethyl)-4-(1,2,3,4-tetrahydroquinoline-7-sulfonamido)cyclohexanecarboxamide]
20 | 60 | C[C@@H](NC(=O)[C@H]1CC[C@H](NS(=O)(=O)c2ccc3c(c2)CCCN3)CC1)c1ccc(F)cc1 [Example 152, (1r,4R)-N-((R)-1-(4-fluorophenyl)ethyl)-4-(1,2,3,4-tetrahydroquinoline-6-sulfonamido)cyclohexanecarboxamide]
21 | 440 | C[C@@H](NC(=O)[C@H]1CC[C@H](NS(=O)(=O)c2cnc3c(c2)NCC(C)(C)CN3)CC1)c1ccc(F)cc1 [Example 153, (1r,4R)-4-(3,3-dimethyl-2,3,4,5-tetrahydro-1H-pyrido[2,3-b][1,4]diazepine-8-sulfonamido)-N-((R)-1-(4-fluorophenyl)ethyl)cyclohexanecarboxamide]
22 | 1990 | C[C@@H](NC(=O)[C@H]1CC[C@@H](NS(=O)(=O)c2cnc3c(c2)NCC(C)(C)CN3)CC1)c1ccc(F)cc1 [Example 154, (1s,4S)-4-(3,3-dimethyl-2,3,4,5-tetrahydro-1H-pyrido[2,3-b][1,4]diazepine-8-sulfonamido)-N-((R)-1-(4-fluorophenyl)ethyl)cyclohexanecarboxamide]
